Experiment [1] concerns tissue explants from leiomyomas. Nature of the experiment: qRT-PCR of p21, BAX and Ki-67 in tissue explants from leiomyomas incubated with nutlin-3. The experiment is classed as cell-based, human. Here is the method: Altogether, tissue samples of 36 patients have been investigated herein; see Table 1 in FIGS. 20A and 20B. The study was approved by the local ethics committee and prior to surgery; informed written consent was obtained from all patients. For gene expression studies samples of 52 UL from 31 patients along with matching myometrium were taken during surgery, immediately frozen in liquid nitrogen, and stored at −80° C. for RNA isolation and qRT-PCR analyses of p14^Arf. For MDM2 inhibition six tissue samples of UL from four patients as well as matching myometrium were taken during surgery and immediately transferred into sterile Hank's solution.
[…] As controls tissue explants were incubated in medium 199 supplemented with 20% FCS without nutlin-3 for 72 h.
About 250 ng of total RNA were reverse transcribed with 200 U/μl of M-MLV reverse transcriptase (Invitrogen, Karlsruhe, Germany), RNase Out, 150 ng random hexamers and 10 mM dNTPs according to the manufacturer's instructions. RNA was denatured at 65° C. for 5 min and subsequently kept on ice for 1 min. After adding the enzyme to the RNA primer mixes, samples were incubated for 10 min at 25° C. to allow annealing of the random hexamers. Reverse transcription was performed at 37° C. for […] followed by inactivation of the reverse transcriptase at 70° C. for 15 min.
Relative quantification of transcription levels was carried out by real-time PCR analyses using the Applied Biosystems 7300 real-time PCR system (Applied Biosystems, Darmstadt, Germany). Commercially available gene expression assays (Applied Biosystems, Darmstadt, Germany) were used for quantification of mRNA of human p14^Arf (Hs00924091), BAX (Hs00180269_m1), CDKN1A (Hs 99999142), and MKI67 (Hs00606991_m1). HPRT served as endogenous control. All qRT-PCR experiments were done in triplicate.

The subject of a further experiment is canine ADSCs. In words: Treatment of canine ADSCs with nutlin-3, qRT-PCR of HMGA2 and p21. The experiment is classed as cell-based. The settings on record: two donors, 30 μM and 50 μM, 72 h. How it is done:
Canine subcutaneous adipose tissue was taken during surgery, transferred into sterile Hank's solution and minced for cell culture into small pieces followed by treatment with 0.26% (200 U/ml) collagenase (Serva, Heidelberg, Germany). From these samples ADSCs were isolated. Briefly, after 1-2 hours, the dissociated cells were transferred into sterile 25 cm^2 cell culture flasks containing 5 ml medium 199 (Gibco, Karlsruhe, Germany), supplemented with 20% fetal bovine serum (FCS, Invitrogen, Karlsruhe, Germany) and 2% penicillin-streptomycin (Biochrom, Berlin, Germany). The cultures were incubated in 5% CO2 air at 37° C. and medium was changed every two to three days. […]
Relative quantification of transcription levels was carried out by real-time PCR analyses using the Applied Biosystems 7300 Real-Time PCR system (Applied Biosystems, Darmstadt, Germany). For quantification of mRNA levels of canine p21a commercially available gene expression assay was used (Hs99999142) (Applied Biosystems, Darmstadt, Germany). […] For canine cells the housekeeping gene beta-glucuronidase (GUSB) served as the reference for relative quantification because in contrast to some other housekeeping genes its expression turned out not to increase in serum starved ADSCs when induced by fetal serum in our own experiments. […]
On the technique in general: Quantitative PCR measures a nucleic acid by following its amplification.

[2] abbreviates: explants from four leiomyomas, 3 μM and 10 μM, 72 h, compared to controls.
The mark [3] stands for this setting: six days, three UL along with matching myometrium, dose-dependent.

Each structure is given as a SMILES string.

`COc1ccc(C2=N[C@@H](c3ccc(Cl)cc3)[C@@H](c3ccc(Cl)cc3)N2C(=O)N2CCNC(=O)C2)c(OC(C)C)c1` [nutlin-3]: in experiment [1] (setting [2]), the “expression of BAX” value is given as “concentration-dependent highly significant (p<0.01 or p<0.001, respectively) increases”; the “expression of Ki-67” value is “strongly decreased”; the “expression of p21” value is on record as “concentration-dependent highly significant (p<0.01 or p<0.001, respectively) increases”. The “expression of Ki-67, one exceptional case” value in experiment [1] (one leiomyoma explant, 3 μM, 72 h) is “an increase of Ki-67 expression was noted”. In addition, in experiment [1] (setting [3]), the “expression of BAX” value was “significant increase”, the “expression of Ki-67” value is “decreased expression” and the “expression of p21” value is recorded as “significant increase”. Moreover, in the experiment on canine ADSCs, the “expression of HMGA2” value is given as “significant decrease” and the “expression of p21” value was “increase”.

Source of the values: patent publication US20140371237A1, “p19Arf, HMGA2 and MDM2 For Use in the Diagnosis and Treatment of Aberrant Cell Growth” (University of Bremen, priority 2010, published 2014).
